From patent publication US20230038360A1, “COMPOSITION FOR THE TREATMENT OF AMYLOID-BETA ASSOCIATED DISEASES” (BASF SE, priority 2019, published 2023)

Test system: C. elegans strain CL4176 expressing amyloid-beta peptide in muscle cells
Experiment: Paralysis assay in transgenic C. elegans strain CL4176 expressing human Aβ1-42 peptide in muscle cells
Assay type: in vivo
Conditions: 1 mg/ml sodium propionate in nematode growth medium; after 24 hours; Aβ1-42 expression induced by temperature control
From the text: The biological model C. elegans was used to study the effects of sodium propionate on amyloid-beta associated pathology. C. elegans has become an excellent and well recognized model for studying neurodegenerative diseases (Zhou et al., 2011; Hekimi et al., 2011; Kaletsky & Murphy, 2010). This nematode contains 302 neuron cells with neurotransmitters and neuropeptides similar to the mammalian nervous system. All the basic functions in the worm such as development, feeding and movement are controlled by the nervous system. The model is particularly useful for studying amyloid-beta associated pathologies, since transgenic strains have been generated able to express the human Aβ1-42 peptide in muscle cells, producing a progressive paralysis in the nematodes as a result of toxic effects (Link, 1995). Therefore, this model using such strains is useful to study substances in view of their ability to reduce β-amyloid peptide cell toxicity.
In the present experiment, the transgenic C. elegans strain CL4176 expressing amyloid-beta peptide in muscle cells was used. The worms were cultured in plates with nematode growth medium (control) or in plates supplemented with different concentrations of sodium propionate (test substance). The expression of Aβ1-42 peptide was induced in the nematodes by temperature control, and the percentage of worms paralyzed was determined at different time points. […]

CCC(=O)[O-].[Na+] [sodium propionate]
number of paralyzed C. elegans compared to the untreated Aβ1-42 peptide expressing C. elegans: significantly lower
